Data taken from patent US20240398853A1, “MULTIVALENT POLYCATION INHIBITION OF POLYANIONS IN BLOOD” (The Regents of the University of Michigan, priority 2021, published 2024).
pKd: −log10 of the molar value.

How the values were obtained:
[1] = Isothermal titration calorimetry, binding to polyP; conditions: for pKd: pH 7.4, 25° C.
Method: The interaction of MPI and polyP was carried out at 25° C. using a MicroCal iTC200 calorimeter (MicroCal, Northampton, USA). Samples were prepared by making stock solutions of at least 100× the desired concentration at high volume and filtered using 0.2 µm filters (Millex, Merck Millipore Ltd). The pH of each solution was then measured to ensure that they were between 7.35 and 7.40. Prior to titration, stock solutions were diluted with the same filtered buffer and degassed. Titrations consisted of 25 consecutive injections of 1.5 μL volume and 5 sec duration each, with a 3 min interval between injections with only the first injection between 0.2 μL volume, not used as part of the fit. Heat of dilution was measured by injecting MPI solution into buffer alone and was subtracted from the experimental curves prior to data analysis. The resulting data were fit into a single set of identical sites model using the MicroCal ORIGIN software supplied with the instrument.

[2] = 31P NMR titration of polyP with MPI or CBG; type: binding; conditions: HEPES buffer, 150 mM NaCl, 298 K
Method: NMR spectra for MPI and polyP binding interaction studies were acquired on a Bruker 500 MHz instrument (Bruker Biospin, Milton, ON), operating at a ^1H frequency of 499.4 MHz. ^31P NMR spectra were collected at 298 K. The NMR sample was prepared to yield 0.5 mM of polyphosphate in HEPES buffer with 150 mM NaCl and 10% D2O (by volume) for a total sample volume of 600 μL. All polyphosphate concentrations are provided in terms of the concentration of phosphate monomer. For the binding study, polyphosphate was first prepared with a known concentration of internal standard of trimethylphosphate. MPI was titrated in, and the total volume was increased by 1.5 μL of the 600 μL total per addition.
While ITC experiments indicate the behavior of the amine functionalities on the CBGs during the MPI-polyP binding event, the effect of the MPI on the polyP phosphate backbone have previously been unknown. To determine the interaction between the MPI and polyP backbone, and how the interaction effects the electronic environment of the phosphorus nuclei, ^31P NMR titration experiments were performed. […] While it is not possible to quantify the number of bound phosphate units with MPI or CBG, it is possible to visualize the change in electronic environment of the phosphorus nuclei and extrapolate the binding behavior between MPI and polyP.

[3] = free ligand, value marked with a reference superscript; cited from earlier work
human plasma clotting = test: Plasma clot formation by turbidity analysis in a TF-triggered system (no polyP); type: biochemical
Method: Microplate turbidimetric clotting assays were performed with platelet-poor plasma (PPP) obtained from three donors. MPI solutions were prepared in 20 mM HEPES (pH 7.4, 150 mM NaCl) buffer. Clotting was initiated in 90 μL of 30% diluted PPP spiked with MPI (dilution 1:10) by adding 5 μL of recombinant tissue factor (TF; Innovin (1:10,000; […])) and 5 μL of CaCl2) (20 mM). Clotting was evaluated by monitoring changes in turbidity (A405 nm) every 30 seconds with the Spectramax microplate reader for 2 hours at 37° C. Clotting parameters including lag time were calculated and considered as the time point when an exponential increase in absorbance was first observed.

[4] = tested on: Unfractionated heparin (UFH); test: Heparin reversal activity by aPTT in heparinized plasma; type: biochemical, human; conditions: UFH 4 U/mL, dose range 0-250 μg/mL
Method: (§1) Stock MPI, UHRA or protamine sulfate solutions were prepared in 20 mM HEPES buffer (pH 7.4 and 150 mM NaCl). Unfractionated heparin (Fresenius Kabi, Canada) or tinzaparin (LEO Pharma, Canada), 4 U/mL and 1 U/mL final concentrations, respectively, were incubated with sodium citrate anticoagulated pooled normal plasma (Affinity Biologicals, Canada) to prepare heparinized plasma, and were used to study the neutralization activity by various MPI and UHRA constructs. The neutralization activity of MPI, UHRA and protamine sulfate on the coagulation cascade was examined by mixing 20 μL of MPI or UHRA or protamine solution with 180 μL of heparin derivative incubated plasma ( 1/10 v/v). The final concentration of MPI, UHRA and protamine in plasma ranged from 0.025 mg/mL to 0.25 mg/mL. 200 μL of aPTT reagent (Dade®Actin®FS Activated PTT, Siemens/Dade-Behring) was then added to the neutralization reagent-plasma sample and 100 μL of this resulting mixture was transferred to cuvette-strips and incubated at 37° C. for 3 minutes. The clotting time was measured on a STart® 4 coagulometer (Diagnostica Stago, France) and began when 50 μL of 25 mM CaCl2) was added into each cuvette. Saline added to plasma with and without heparin-derivatives was used as a control for the experiments. The percentage of neutralization was calculated from the difference in the clotting times observed for MPI/UHRA/protamine versus control saline and heparinized plasma. All experiments were performed with pooled plasma of 20 donors in triplicates and the average values (mean±SD) are reported.

tinzaparin (LMWH) = test: as above; type: biochemical, human; conditions: tinzaparin 1 U/mL
Method: as §1

mice = mice (Shenoi); cited from earlier work

Compound | binding affinity to LC polyP (range in words) ([1]; ITC, FIG. 7) | pKd ([1]; P45, HEPES, 10 mM NaCl) | pKd ([1]; P700, HEPES buffer) | binding behaviour towards P45 in 31P NMR titration [2] | log K, H2L + H ⇌ H3L [3] | log K, HL + H ⇌ H2L [3] | log K, L + H ⇌ HL [3] | log K, H3L + H ⇌ H4L [3] | plasma clot time (lag time) compared to buffer control (human plasma clotting; MPI and PS 200 μg/mL, UHRA 75 μg/mL) | increase in clot time compared to buffer control (human plasma clotting; pooled plasma) [fold] | UFH neutralization in heparinized plasma [4] | anticoagulant (overdose) behavior at higher doses [4] | LMWH neutralization (tinzaparin (LMWH)) | lethal dose (mice) [mg/kg]
CN(C)CCN(C)CCN(C)C [CBG I, N,NN′,N″,N″-pentamethyldiethylenetriamine] | millimolar range | 2.15 | 2.05 | weak interaction | 2.09 ± 0.02 | 8.41 ± 0.02 | 9.22 ± 0.02 | – | – | – | – | – | – | –
CN(C)CCN(CCN(C)C)CCN(C)C [Me6-TREN] | – | – | – | – | 7.44 | 8.68 | 9.50 | <1.0 | – | – | – | – | – | –
protamine sulfate | – | – | – | – | – | – | – | – | performed significantly worse than MPI candidates | ~3 | exhibits heparin neutralization at lower doses | clear anticoagulant behavior at higher doses | almost no neutralization activity on LMWH | 30
